In patent US9765070B2, “Substituted oxopyridine derivatives” (Bayer Pharma Aktiengesellschaft, priority 2013, dated 2017):
pIC50: −log10 of the molar value.

Experiments:
[1] = target: human factor XIa (Homo sapiens (Human), UniProt P03951); assay: Measurement of FXIa inhibition (fluorogenic peptide substrate Boc-Glu(OBzl)-Ala-Arg-AMC); format: biochemical; details: factor XIa from Kordia 0.45 nM, 15 min preincubation, 30 min at 22° C., fluorescence
Experimental: a.1) Measurement of FXIa Inhibition
(§1) The factor XIa inhibition of the substances according to the invention is determined using a biochemical test system which utilizes the reaction of a peptidic factor XIa substrate to determine the enzymatic activity of human factor XIa. Here, factor XIa cleaves from the peptic factor XIa substrate the C-terminal aminomethylcoumarin (AMC), the fluorescence of which is measured. The determinations are carried out in microtitre plates.
In each case 1 μl of the diluted substance solutions is placed into the wells of white microtitre plates from Greiner (384 wells). 20 μl of assay buffer (50 mM of Tris/HCl pH 7.4; 100 mM of sodium chloride; 5 mM of calcium chloride; 0.1% of bovine serum albumin) and 20 μl of factor XIa from Kordia (0.45 nM in assay buffer) are then added successively. After 15 min of incubation, the enzyme reaction is started by addition of 20 μl of the factor XIa substrate Boc-Glu(OBzl)-Ala-Arg-AMC dissolved in assay buffer (10 μM in assay buffer) from Bachem, the mixture is incubated at room temperature (22° C.) for 30 min and fluorescence is then measured (excitation: 360 nm, emission: 460 nm). The measured emissions of the test batches with test substance are compared to those of control batches without test substance (only dimethyl sulphoxide instead of test substance in dimethyl sulphoxide), and IC50 values are calculated from the concentration/activity relationships.

[2] = target: human plasma kallikrein (Homo sapiens (Human), UniProt P03952); assay: Determination of the plasma kallikrein activity (fluorogenic substrate H-Pro-Phe-Arg-AMC); format: biochemical; details: plasma kallikrein from Kordia 0.6 nM, 15 min preincubation, 30 min at 22° C., fluorescence
Sequence of human plasma kallikrein (P03952 391-638): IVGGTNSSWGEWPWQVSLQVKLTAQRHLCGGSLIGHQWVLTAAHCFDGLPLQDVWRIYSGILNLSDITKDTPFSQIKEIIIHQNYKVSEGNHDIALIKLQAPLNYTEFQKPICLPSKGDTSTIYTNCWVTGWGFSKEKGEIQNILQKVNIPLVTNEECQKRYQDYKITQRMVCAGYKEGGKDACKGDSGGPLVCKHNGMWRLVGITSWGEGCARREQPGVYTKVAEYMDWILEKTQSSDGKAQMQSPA
Sequence of human plasma kallikrein (P03952 20-390 partner): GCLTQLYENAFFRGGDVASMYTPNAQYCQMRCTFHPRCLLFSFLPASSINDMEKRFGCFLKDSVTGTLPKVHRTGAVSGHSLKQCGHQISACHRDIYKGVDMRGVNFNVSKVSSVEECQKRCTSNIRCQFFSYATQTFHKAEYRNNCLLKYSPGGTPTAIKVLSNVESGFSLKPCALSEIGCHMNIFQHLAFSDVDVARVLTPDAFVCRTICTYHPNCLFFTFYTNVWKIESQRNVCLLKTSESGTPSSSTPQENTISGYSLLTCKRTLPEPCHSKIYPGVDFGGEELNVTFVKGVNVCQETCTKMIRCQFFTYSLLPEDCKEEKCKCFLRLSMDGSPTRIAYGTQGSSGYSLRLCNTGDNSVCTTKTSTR
Experimental: a.5) Determination of the Plasma Kallikrein Activity
as §1, with “To determine the plasma kallikrein” for “The factor XIa”, “invention,” for “invention is determined using”, “system is used” for “system”, “plasma kallikrein” for “factor XIa”, “plasma kallikrein.” for “factor XIa.”
In each case 1 μl of the diluted substance solutions is placed into the wells of white microtitre plates from Greiner (384 wells). 20 μl of assay buffer (50 mM Tris/HCl pH 7.4; 100 mM sodium chloride solution; 5 mM of calcium chloride solution; 0.1% of bovine serum albumin) and 20 μl of plasma kallikrein from Kordia (0.6 nM in assay buffer) are then added successively. After 15 min of incubation, the enzyme reaction is started by addition of 20 μl of the substrate H-Pro-Phe-Arg-AMC dissolved in assay buffer (10 μM in assay buffer) from Bachem, the mixture is incubated at room temperature (22° C.) for 30 min and fluorescence is then measured (excitation: 360 nm, emission: 460 nm). The measured emissions of the test batches with test substance are compared to those of control batches without test substance (only dimethyl sulphoxide instead of test substance in dimethyl sulphoxide), and IC50 values are calculated from the concentration/activity relationships.

Sequence of human factor XIa (P03951 388-625): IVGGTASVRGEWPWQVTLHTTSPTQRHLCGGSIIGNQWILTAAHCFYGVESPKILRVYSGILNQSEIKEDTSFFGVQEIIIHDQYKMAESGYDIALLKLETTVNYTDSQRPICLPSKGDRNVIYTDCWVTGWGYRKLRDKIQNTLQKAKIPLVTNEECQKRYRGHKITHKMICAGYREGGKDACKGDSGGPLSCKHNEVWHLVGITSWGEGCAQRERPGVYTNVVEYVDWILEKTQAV
Sequence of human factor XIa (P03951 19-387 partner): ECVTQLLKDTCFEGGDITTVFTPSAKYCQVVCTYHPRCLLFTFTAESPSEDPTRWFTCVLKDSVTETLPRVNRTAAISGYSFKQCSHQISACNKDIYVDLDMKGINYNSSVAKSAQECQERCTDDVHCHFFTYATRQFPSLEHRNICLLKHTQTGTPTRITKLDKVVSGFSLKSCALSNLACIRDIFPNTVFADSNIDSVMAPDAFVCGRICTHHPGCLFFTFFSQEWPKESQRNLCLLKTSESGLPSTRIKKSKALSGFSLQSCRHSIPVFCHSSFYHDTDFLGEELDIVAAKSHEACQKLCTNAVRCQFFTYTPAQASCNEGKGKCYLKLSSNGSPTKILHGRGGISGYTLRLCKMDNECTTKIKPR

| SMILES | pIC50 [1] | pIC50 [2] |
| --- | --- | --- |
| N#Cc1ccc(Cl)cc1-c1cc(=O)n(C(Cc2cnco2)C(=O)Nc2ccc3nccn3c2)cc1Cl (racemic) [Example 30, 2-[5-Chloro-4-(5-chloro-2-cyanophenyl)-2-oxopyridin-1(2H)-yl]-N-(imidazo[1,2-a]pyridin-6-yl)-3-(1,3-oxazol-5-yl)propanamide (racemate)] | 7.02 | 6.92 |
| N#Cc1ccc(Cl)cc1-c1cc(=O)n(C(Cc2cnco2)C(=O)Nc2ccc3nccn3c2)cc1OC(F)F (racemic) [Example 31, 2-[4-(5-Chloro-2-cyanophenyl)-5-(difluoromethoxy)-2-oxopyridin-1(2H)-yl]-N-(imidazo[1,2-a]pyridin-6-yl)-3-(1,3-oxazol-5-yl)propanamide (racemate)] | 6.30 | 6.01 |
| COCCC(C(=O)Nc1ccc2nnc(C)n2c1)n1cc(OC)c(-c2cc(Cl)ccc2C#N)cc1=O (racemic) [Example 22, 2-[4-(5-Chloro-2-cyanophenyl)-5-methoxy-2-oxopyridin-1(2H)-yl]-4-methoxy-N-(3-methyl[1,2,4]triazolo[4,3-a]pyridin-6-yl)butanamide (racemate)] | – | 8.08 |

Further lines, results first:

| pIC50 [1] | pIC50 [2] | SMILES |
| --- | --- | --- |
| 7.04 | – | COc1cn(C(Cc2cocn2)C(=O)Nc2ccc3nccn3c2)c(=O)cc1-c1cc(Cl)ccc1C#N (racemic) [Example 32, 2-[4-(5-Chloro-2-cyanophenyl)-5-methoxy-2-oxopyridin-1(2H)-yl]-N-(imidazo[1,2-a]pyridin-6-yl)-3-(1,3-oxazol-4-yl)propanamide (racemate)] |
| 6.42 | – | O=C(Cn1cc(Cl)c(-c2cc(Cl)ccc2OC(F)F)cc1=O)Nc1ccc2nc(C(=O)O)cn2c1 [Example 8, 6-[({5-Chloro-4-[5-chloro-2-(difluoromethoxy)phenyl]-2-oxopyridin-1(2H)-yl}acetyl)amino]imidazo[1,2-a]pyridine-2-carboxylic acid] |
| 6.51 | 6.60 | N#Cc1ccc(Cl)cc1-c1cc(=O)n(C(Cc2cocn2)C(=O)Nc2ccc3nccn3c2)cc1Cl (racemic) [Example 33, 2-[5-Chloro-4-(5-chloro-2-cyanophenyl)-2-oxopyridin-1(2H)-yl]-N-(imidazo[1,2-a]pyridin-6-yl)-3-(1,3-oxazol-4-yl)propanamide (racemate)] |
